Values joined by “and” are separate entries in the source; they are usually repeats but may differ in a detail not shown here. Identical values can stand only once. “Also recorded” adds a separate entry of the source.
Each compound was assayed on rat ileum (assay: Contractility of isolated rat GI segments ex vivo (myobath organ bath), response to PK1). Details: not given.

| Compound | effect on the early component of the PK1-evoked contractile response |
| --- | --- |
| CN1[C@@H]2CC[C@H]1C[C@@H](OC(=O)C(CO)c1ccccc1)C2 (stereo partly shown) [Atropine, reference compound] | attenuate |
| NC1=N[C@H](O)[C@H]2[C@H]3O[C@]4(O)O[C@@H]([C@@H](O)[C@@]2(N1)[C@@H]4O)[C@]3(O)CO [Tetrodotoxin, reference compound] | attenuate |

What follows are compounds tested against T1, GPR73 (PK1 receptor) (Homo sapiens, UniProt Q8TCW9) (assay: PK1 functional assay: screening for PK1 antagonists on the FLIPR (calcium dye) in HEK 293 GPR73 expressing cells). Details: 10 μM compound; HEK 293 GPR73 (PK1 receptor) expressing cells, FLIPR.
T1 construct: expressed in transfected cells; host or cells: HEK 293
T1 sequence (Q8TCW9 whole entry, species assumed): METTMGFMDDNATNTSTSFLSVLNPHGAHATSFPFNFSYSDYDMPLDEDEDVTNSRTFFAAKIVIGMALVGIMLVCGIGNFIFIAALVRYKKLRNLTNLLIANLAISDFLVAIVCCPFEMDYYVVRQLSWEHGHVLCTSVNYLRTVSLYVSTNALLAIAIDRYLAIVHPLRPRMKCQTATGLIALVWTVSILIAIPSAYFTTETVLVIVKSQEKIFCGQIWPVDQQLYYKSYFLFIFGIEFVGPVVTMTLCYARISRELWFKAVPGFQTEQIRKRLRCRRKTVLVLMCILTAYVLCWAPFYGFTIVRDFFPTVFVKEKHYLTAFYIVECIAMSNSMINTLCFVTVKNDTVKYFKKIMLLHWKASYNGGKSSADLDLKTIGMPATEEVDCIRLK
Format: cell-based
Experimental: At a time of 24 h prior to running the assay, in cell culture media (DMEM containing high Glucose and L-glutamine, 10% FBS, 1% Pen/Streptomycin, 1% Sodium Pyruvate, 20 mM HEPES, Zeocin 200 mg/L), 100 μL of 1.3*10^6/ml HEK 293 GPR73 (PK1 receptor) expressing cells were plated in a 96 well poly-d-lysine coated plate (Costar), and incubated at 37° C. and 5% CO2. On the day in which the assay was run, the media was removed and 200 μL of 5× Calcium Plus Dye (Molecular Devices) which was previously resuspended with 200 mL of assay buffer [HBSS w/Ca^2+ and Mg^2+ w/o phenol red, 20 mM HEPES, 0.1% BSA, 10 mL probenecid (710 mg probenecid in 5 mL of 1N NaOH, to which was then added 5 mL HBSS containing 20 mM HEPES)] was added to each well of the 96-well plate. The plate was incubated at 37° C. and 5% CO2 for 30 min in dark. The plate was removed and allowed to reach RT for 15 min in the dark. The assay was then run on the FLIPR. […] Baseline is described as the amount of relative fluorescence read when buffer alone is added to cells. Baseline was subtracted from all wells. Percent of control was calculated as follows: (Baseline subtracted well value is divided by baseline subtracted max value)*100. Percent inhibition is 100 minus the percent of control value.
IC50 values were calculated using GraphPad Prism.
Table 2 includes data generated from the PK1 functional assay described in Example 2.

| Compound | Ca^2+ Mobilization % Inh @10 μM |
| --- | --- |
| COc1ccc(Cn2c(NCCNC(=N)NCCc3ccccn3)nc(=O)n(Cc3ccc(F)cc3)c2=O)cc1 [Cpd 105] | 100% |
| COc1ccc(Cn2c(NCCNC(=N)NCCc3ccccc3)nc(=O)n(Cc3ccc(Cl)c(Cl)c3)c2=O)cc1 [Cpd 65] | 88% |
| N-{2-[5-Benzyl-1-(4-methoxy-benzyl)-4,6-dioxo-1,4,5,6-tetrahydro-[1,3,5]triazin-2-ylamino]-ethyl}-oxyguanidine [Cpd 27] | 55% |
| N-Benzoyl-N-{2-[5-(4-fluoro-benzyl)-1-(4-methoxy-benzyl)-4,6-dioxo-1,4,5,6-tetrahydro-[1,3,5]triazin-2-ylamino]-ethyl}-guanidine [Cpd 134] | 97, 97% |
| N-{2-[5-(4-Fluoro-benzyl)-1-(4-methoxy-benzyl)-4,6-dioxo-1,4,5,6-tetrahydro-[1,3,5]triazin-2-ylamino]-ethyl}-N-amino-guanidine [Cpd 93] | 92% |

Same assay, conditions: 10 μM compound; HEK 293 GPR73 (PK1 receptor) expressing cells, FLIPR; 10 µM

| Compound | Ca^2+ Mobilization % Inh @10 μM |
| --- | --- |
| COc1ccc(Cn2c(NCCN(C(=N)N)c3ccccn3)nc(=O)n(Cc3ccc(F)cc3)c2=O)cc1 [Cpd 104, N-{2-[5-(4-Fluoro-benzyl)-1-(4-methoxy-benzyl)-4,6-dioxo-1,4,5,6-tetrahydro-[1,3,5]triazin-2-ylamino]-ethyl}-N-pyridin-2-yl-guanidine] | 99% |
| N-{2-[5-(4-Fluoro-benzyl)-1-(4-methoxy-benzyl)-4,6-dioxo-1,4,5,6-tetrahydro-[1,3,5]triazin-2-ylamino]-ethyl}-N-(4-fluoro-phenyl)-guanidine [Cpd 119] | 102% and 99% |
| N-{2-[5-(4-Fluoro-benzyl)-1-(4-methoxy-benzyl)-4,6-dioxo-1,4,5,6-tetrahydro-[1,3,5]triazin-2-ylamino]-ethyl}-N-(2-fluoro-phenyl)-guanidine [Cpd 118] | 98% and 102% |
| N-{2-[5-(3,4-Dichloro-benzyl)-1-(4-methoxy-benzyl)-4,6-dioxo-1,4,5,6-tetrahydro-[1,3,5]triazin-2-ylamino]-ethyl}-N-isopropyl-guanidine [Cpd 58] | 102% and 99% |

Same assay, conditions: HEK293, 10 μM compound; HEK 293 GPR73 (PK1 receptor) expressing cells, FLIPR; read-out: Ca^2+ Mobilization % Inh @10 μM

| Compound | inhibition at 10 µM [%] |
| --- | --- |
| COc1ccc(Cn2c(N[C@H](C)[C@@H](C)NC(=N)N)nc(=O)n(Cc3ccc(F)cc3)c2=O)cc1 [Cpd 137] | 98 |
| COc1ccc(Cn2c(=O)nc(NCCNC(=N)N)n(Cc3ccc(O)cc3)c2=O)cc1 [Cpd 143, N-{2-[1-(4-Hydroxy-benzyl)-5-(4-methoxy-benzyl)-4,6-dioxo-1,4,5,6-tetrahydro-[1,3,5]triazin-2-ylamino]-ethyl}-guanidine] | 101 |
| COc1ccc(Cn2c(NCCONC(=N)N)nc(=O)n(Cc3ccccc3)c2=O)cc1 [Cpd 10] | 33 |

Same assay, conditions: HEK 293 GPR73 (PK1 receptor) expressing cells, FLIPR; PK1 ligand at EC50; read-out: Ca^2+ Mobilization IC50

| Compound | IC50 |
| --- | --- |
| COc1ccc(Cn2c(NCCNC(=N)N)nc(=O)n(Cc3ccccc3OC)c2=O)cc1 [Cpd 21] | > 10 µM |
| COc1ccc(Cn2c(N[C@@H](C)[C@H](C)NC(=N)N)nc(=O)n(Cc3ccc(F)cc3)c2=O)cc1 [Cpd 136] | > 10 µM |
| N=C(N)NCCNc1nc(=O)n(Cc2ccccc2)c(=O)n1Cc1cccc(C(F)(F)F)c1 [Cpd 7] | > 10 µM |
| N=C(N)NCCNc1nc(=O)n(Cc2ccccc2)c(=O)n1Cc1ccncc1 [Cpd 11] | > 10 µM |
| COc1ccc(Cn2c(N[C@H]3CCCC[C@@H]3NC(=N)N)nc(=O)n(Cc3ccc(Cl)c(Cl)c3)c2=O)cc1 [Cpd 43] | > 10 µM |
| COc1ccc(Cn2c(NCCNC(=N)N)nc(=O)n(CC(C)(C)C)c2=O)cc1 [Cpd 123] | > 10 µM |
| COc1ccc(Cn2c(NCCNC(=N)N)nc(=O)n(Cc3cccc(N)c3)c2=O)cc1 [Cpd 96] | > 10 µM |
| N-Benzoyl-N-{2-[5-(4-fluoro-benzyl)-1-(4-methoxy-benzyl)-4,6-dioxo-1,4,5,6-tetrahydro-[1,3,5]triazin-2-ylamino]-ethyl}-guanidine [Cpd 134] | 0.019 µM and 0.028 µM |
| N-{2-[5-(4-Fluoro-benzyl)-1-(4-methoxy-benzyl)-4,6-dioxo-1,4,5,6-tetrahydro-[1,3,5]triazin-2-ylamino]-ethyl}-N-(4-fluoro-phenyl)-guanidine [Cpd 119] | 0.006 µM and 0.012 µM |
| N-{2-[5-(4-Fluoro-benzyl)-1-(4-methoxy-benzyl)-4,6-dioxo-1,4,5,6-tetrahydro-[1,3,5]triazin-2-ylamino]-ethyl}-N-(2-fluoro-phenyl)-guanidine [Cpd 118] | 0.006 µM |
| N=C(N)NCCNc1nc(=O)n(Cc2ccccc2)c(=O)n1Cc1ccc(F)cc1 [Cpd 1] | > 10 µM |
| N=C(N)NCCNc1nc(=O)n(Cc2ccc(F)cc2)c(=O)n1Cc1ccc([N+](=O)[O-])cc1 [Cpd 87] | > 10 µM |
| COc1ccc(Cn2c(NCCNC(=N)N)nc(=O)n(Cc3cccc(C#N)c3)c2=O)cc1 [Cpd 98] | > 10 µM |
| N-{2-[5-(4-Fluoro-benzyl)-1-(4-methoxy-benzyl)-4,6-dioxo-1,4,5,6-tetrahydro-[1,3,5]triazin-2-ylamino]-ethyl}-N-amino-guanidine [Cpd 93] | 0.227 µM |
| COc1ccc(Cn2c(NCCNC(=N)N)nc(=O)n(Cc3ccc(C(=O)O)cc3)c2=O)cc1 [Cpd 101, 4-[4-(2-Guanidino-ethylamino)-3-(4-methoxy-benzyl)-2,6-dioxo-3,6-dihydro-2H-[1,3,5]triazin-1-ylmethyl]-benzoic acid] | > 10 µM |
| COc1ccc(Cn2c(NCCONC(=N)N)nc(=O)n(Cc3ccccc3)c2=O)cc1 [Cpd 10] | > 10 µM |

Same assay, conditions: cellular assay

| Compound | activity at the PK1 receptor |
| --- | --- |
| COc1ccc(Cn2c(N[C@H]3CCCC[C@@H]3NC(=N)N)nc(=O)n(Cc3ccc(Cl)c(Cl)c3)c2=O)cc1 [JNJ 28611921] | lack significant activity; also recorded: not active |
